# Measurements published in patent US20180217129A1, “A Method Of Assessing Protein Modification Status And Identifying Biomarkers Linked To Cell Signaling Pathways” (Queen Mary University of London, priority 2015, published 2018).
# Like-named read-outs stand apart in the source and are kept apart here.
# How the values were obtained:
# [1] = tested on: off-target kinases (MRC database); conditions: cited from earlier work
# [2] = tested on: off-targets (ChEMBL); conditions: cited from earlier work
# [3] = tested on: parental MCF7 cells; assay: Cell proliferation assay (cell counting), parental cells; format: cell-based, human; conditions: 1 μM of inhibitor
# Method: (§1) Parental MCF7, G1:3 and K1:3 cell-lines were seeded in 12-well plates at a density of approximately 80,000 cells·well^−1, in biological triplicate. After the indicated time period, cells were washed with PBS, trypsinized and counted using a Beckman Coulter Vi-CELL XR cell counter. Second-order polynomials where fitted to the data using the ggplot2 package (v0.9.3.1) within R (v3.0.0).
# [4] = tested on: MCF7-G and MCF7-K resistant cells; assay: Cell proliferation assay (cell counting), resistant cells; format: cell-based, human; conditions: resistant cell-lines (MCF7-G for GDC-0941, MCF7-K for KU-0063794), 1 μM of inhibitor
# Method: MCF7 cells (identity confirmed by genotyping analysis) were routinely maintained in DMEM (supplemented with 10% fetal-bovine serum and 100 U·mL^−1 penicillin/streptomycin) at 37° C. in a humidified atmosphere at 5% CO2. Resistant MCF7 cell-lines, derived from the original parental cells, were obtained by gradually increasing the concentrations of GDC-0941 or KU-0063794 concentrations (starting at 100 nM up to a maximum of 1 μM) over a period of approximately six months. The resultant clones (MCF7-G1:G3 and MCF7-K1:K3) were then routinely maintained as above in the presence of either 1 μM GDC-0941 or KU-0063794 (in DMSO) for MCF7-G and MCF7-K cells, respectively.
# as §1
# [5] = tested on: MCF7 cells; assay: Growth factor stimulation phosphoproteomics (CTAM group dynamics, KSEA); format: cell-based, human; conditions: stimulation for 5 min, relative to 0 minute control
# Method: Cells were split and seeded at 4×10^5 cells·plate^−1, 72 hours prior to the experiment. The medium in each plate was replaced 24 hours prior to the experiment. Each experiment was performed in biological duplicate. For the network definition experiments, cells were treated with each of the inhibitors or vehicle (DMSO) for 1 hour (Table 1). For the growth factor stimulation experiments, cells were starved for 24h and were subsequently treated with either 50 ng·mL^−1 EGF or IGF for 0, 5, 10, 30, or 60 minutes. For the resistant cell-line experiments, no additional treatments were performed. […]
# The abundance of each of the identified markers was monitored systematically using KSEA (kinase-substrate enrichment analysis), as described previously (1). […] The mean of the log2 fold-ratios (versus control) of the phosphorylation sites representing each CTAM group were then calculated alongside the standard deviation (δ) for each mean. The significance of enrichment was then determined using a Z-score based approach and expressed as P-values, using the following formula: Z=(Sm−μt)·m^1/2/δt; where Sm=mean of the CTAM group log2 fold-ratios; μt=mean of the total dataset log2 ratios; m=number of individual phosphopeptides within the CTAM group; and δt=standard deviation of the total dataset log2 ratios (vs control) (19). […]
molecule,measurement,setting,value
O=c1[nH]c2ccccc2n1C1CCN(Cc2ccc(-c3nc4cc5[nH]cnc5cc4nc3-c3ccccc3)cc2)CC1 [Akt inhibitor VIII],Off-targets from MRC database (>50% inhibition at given concentration),[1]; 1 μM,CAMK1 (1 μM)
CN(C)CCCn1cc(C2=C(c3c[nH]c4ccccc34)C(=O)NC2=O)c2ccccc21 [Bisindolylmaleimide-I],Off-targets from ChEMBL,[2],"CDK4/CCND1, and GSK3β, and PIM1"
Nc1[nH]nc2nnc(-c3c(-c4ccccc4)nn4ccccc34)cc12 [ERK inhibitor II],Off-targets from ChEMBL,[2],MAPK14
CS(=O)(=O)N1CCN(Cc2cc3nc(-c4cccc5[nH]ncc45)nc(N4CCOCC4)c3s2)CC1 [GDC-0941],Off-targets from MRC database (>50% inhibition at given concentration),[1]; 1 μM,CLK2 (1 μM)
same,proliferation in the presence of inhibitor,[3],unable to do so
same,proliferation in the presence of inhibitor,[4],able to proliferate
Cn1c2ccccc2c2c3c(c4c5ccccc5n(CCC#N)c4c21)CNC3=O [Go-6976],Off-targets from ChEMBL,[2],PKD1
Cc1cncc2cccc(S(=O)(=O)N3CCCNC[C@@H]3C)c12 [H-1152],Off-targets from ChEMBL,[2],PKA
"CN([C@@H](Cc1ccc(OS(=O)(=O)c2cccc3cnccc23)cc1)C(=O)N1CCN(c2ccccc2)CC1)S(=O)(=O)c1cccc2cnccc12 [KN-62, 1-N,O-bis(5-isoquinolinesulfonyl)-N-methyl-L-tyrosyl-4-phenylpiperazin E]",Off-targets from MRC database (>50% inhibition at given concentration),[1]; 10 μM,PRAK and CAMK1 and DYRK1A and Lck
same,Off-targets from ChEMBL,[2],P2RX7
COc1ccc(S(=O)(=O)N(CCO)c2ccccc2CN(C)C/C=C/c2ccc(Cl)cc2)cc1 [KN-93],Off-targets from MRC database (>50% inhibition at given concentration),[1]; 10 μM,TrkA and smMLCK
COc1ccc(-c2ccc3c(N4CCOCC4)nc(N4C[C@@H](C)O[C@@H](C)C4)nc3n2)cc1CO [KU-0063794],proliferation in the presence of inhibitor,[3],unable to do so
same,proliferation in the presence of inhibitor,[4],able to proliferate
C=CC(=O)Nc1ccc2ncnc(Nc3cccc(Br)c3)c2c1 [PD-168393],Off-targets from ChEMBL,[2],"ERBB2/4, and BMX and BTK and BLK and JAK3"
CCc1cncnc1N1CCN(Cc2nc3ccc(C(F)(F)F)cc3[nH]2)CC1 [PF-4708671],Off-targets from MRC database (>50% inhibition at given concentration),[1]; 1 μM,MSK1 and RSK1
Oc1cccc(-c2nc(N3CCOCC3)c3oc4ncccc4c3n2)c1 [PI-103],Off-targets from ChEMBL,[2],"mTOR, and DNA-PK, and Akt1"
N#CC(=C(/N)Sc1ccccc1N)/C(C#N)=C(\N)Sc1ccccc1N [U0126],Off-targets from MRC database (>50% inhibition at given concentration),[1]; 10 μM,MKK1 (10 μM)
C[C@@H](N)[C@H]1CC[C@H](C(=O)Nc2ccncc2)CC1 [Y-27632],Off-targets from MRC database (>50% inhibition at given concentration),[1]; 1 μM,PHK and MST2 and RSK2 and MSK1 and MNK1 and RSK1 and AMPK and PRK2
same,Off-targets from ChEMBL,[2],PKCε
IGF-1: Human recombinant IGF-1 (100-11) purchased from Peprotech,EGFR-MEK CTAM group phosphorylation,[5],"significant, acute up-regulation"
